Results from patent US6365584B1, “Arylysulphonamide-substituted benzimidazoles having tryptase-inhibiting activity” (Boehringer Ingelheim Pharma KG, priority 1999, dated 2002).

Key:
rh beta tryptase = biological target: T1, rh beta tryptase (Homo sapiens, UniProt Q15661); assay: tryptase inhibition test (cleavage of N-p-tosyl-Gly-Pro-Lys-para-nitroaniline, p-nitroaniline measured at 405 nm); assay type: biochemical; details: Tris HCl buffer pH 7.4 with calcium and heparin; substrate 0.6 mM; 5 min pre-incubation, 5 min incubation at 37° C.; enzyme activity 0.91 U/ml
T1 construct: purchased Promega
T1 sequence (Q15661 31-275): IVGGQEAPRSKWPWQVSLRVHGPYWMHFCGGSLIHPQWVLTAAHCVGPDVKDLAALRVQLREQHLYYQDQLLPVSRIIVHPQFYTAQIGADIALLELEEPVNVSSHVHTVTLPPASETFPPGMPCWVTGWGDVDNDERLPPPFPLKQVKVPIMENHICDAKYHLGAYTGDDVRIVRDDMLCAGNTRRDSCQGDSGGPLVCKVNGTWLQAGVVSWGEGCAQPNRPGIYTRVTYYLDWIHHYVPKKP
Description: The compounds according to the invention are characterised by their tryptase-inhibiting activity. This ability to inhibit tryptase was investigated using the test described below. The measurement is carried out in Tris HCl buffer (100 mM), which additionally contains calcium (5 mM) and heparin (100 mg/ml), at pH 7.4. The standard used is rh beta tryptase which may be obtained commercially from Promega, for example. The substrate used is N-p-tosyl-Gly-Pro-Lys-para-nitroaniline in a concentration of 0.6 mM. The substrate is digested with tryptase to form p-nitroaniline which can be measured at 405 nm. Usually, an incubation period of 5 minutes and an incubation temperature of 37° C. are chosen. The enzyme activity used is 0.91 U/ml. The measurements are carried out in an Autoanalyser (CobasBio) made by Hofmann LaRoche. The potential inhibitory substances are used in concentrations of 10 μM in the screening, the inhibition of the tryptase being given in percent. The IC50 is determined at over 70% inhibition (concentration at which 50% of the enzyme activity is inhibited). After 5 minutes' pre-incubation of the potential inhibitory substances, the substrate is added to start the reaction, the formation of p-nitroaniline being taken as a measurement of the enzyme activity after 5 minutes, after testing the linearity.
The data obtained after the above test has been carried out (IC50 values) can be found in Table 3.

Row | Compound | IC50 (rh beta tryptase) | melting point
1 | Cn1c(CCc2ccc(C(=N)N)cc2)nc2cc(N(CC(=O)N3CCNCC3)S(=O)(=O)c3ccc4ccccc4c3)ccc21 [Example 48, 1-Methyl-2-[2-(4-amidino-phenyl)-ethyl]-5-[N-(piperazin-1-yl-carbonylmethyl)-naphth-2-ylsulphonylamino]-benzimidazole] | 0.144 µM | 
2 | Cn1c(CCc2ccc(C(=N)N)cc2)nc2cc(N(CC(=O)N3CCN(c4ccncc4)CC3)S(=O)(=O)c3ccc4ccccc4c3)ccc21 [Example 49, 1-Methyl-2-[2-(4-amidino-phenyl)-ethyl]-5-[N-(4′-pyrid-4″- yl-piperazin-1-yl-carbonyl-methyl)-naphth-2-ylsulphonyl-amino]-benzimidazole] | 0.186 µM | 
3 | Cn1c(CCc2ccc(C(=N)N)cc2)nc2cc(N(CC(=O)N3CCN(Cc4ccccc4)CC3)S(=O)(=O)c3ccc4ccccc4c3)ccc21 [Example 50, 1-Methyl-2-[2-(4-amidino-phenyl)-ethyl]-5-[N-(4′-benzyl-piperazin-1-yl-carbonylmethyl)-naphth-2-ylsulphonylamino]-benzimidazole] | 0.215 µM | 
4 | CCN(CC)CCN(c1ccc2c(c1)nc(CCc1ccc(C(=N)N)cc1)n2C)S(=O)(=O)c1cccc2cccnc12 [Example 52, 1-Methyl-2-[2-(4-amidino-phenyl)-ethyl]-5-[N-(2-diethyl-aminoethyl)-quinol-8-yl-sulphonylamino]-benzimidazole;] | 0.029 µM | 
5 | CCN(CC)CCN(c1ccc2c(c1)nc(CCc1ccc(C(=N)N)cc1)n2C)S(=O)(=O)c1cccc2cnccc12 [Example 53, 1-Methyl-2-[2-(4-amidino-phenyl)-ethyl]-5-[N-(2-diethyl-aminoethyl)-isoquinol-5-yl-sulphonylamino]-benzimidazole;] | 0.038 µM | 
6 | CN(C)CCCCN(c1ccc2c(c1)nc(CCc1ccc(C(=N)N)cc1)n2C)S(=O)(=O)c1ccccc1 [Example 54, 1-Methyl-2-[2-(4-amidino-phenyl)-ethyl]-5-[N-(4-dimethyl-aminobutyl)-benzenesulphonyl-amino]-benzimidazole] | 0.027 µM | 
7 | CN1CCCN(C(=O)CN(c2ccc3c(c2)nc(CCc2ccc(C(=N)N)cc2)n3C)S(=O)(=O)c2ccccc2)CC1 [Example 55, 1-Methyl-2-[2-(4-amidino-phenyl)-ethyl]-5-[N-(4-methyl-1,4-diazepin-1-yl-carbonyl-methyl)-benzenesulphonyl-amino]-benzimidazole] | 0.028 µM | 
8 | Cn1c(CCc2ccc(/C(N)=N/O)cc2)nc2cc(N(CCN3CCOCC3)S(=O)(=O)c3ccccc3)ccc21 [Example 56, N-{2-[2-(4-(amino-hydroximinomethyl)-phenyl)-ethyl]-1-methyl-benzimidazol-5-yl}-N-[2-(morpholin-4-yl)-ethyl]-(benzenesulphonamide)] |  | 183 to 186 °C
